According to PubChem BioAssay (NCI):
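Where inhibition never reached the appropriate level, the endpoint shown equals the highest concentration tested. Otherwise, values were interpolated linearly from a five-concentration, 48-hour dose response in 96-well plates. Abbreviation: GI50, concentration required for 50% inhibition of growth. At the TGI there is no net growth.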

What was measured:
Assay in all cases: NCI tumour cell line growth inhibition, 48 h
[1] = tested on: SK-OV-3 ovarian
[2] = tested on: K-562 leukemia
[3] = tested on: DU-145 prostate
[4] = tested on: MCF7 breast
[5] = tested on: NCI-H23 lung
[6] = tested on: SR leukemia
[7] = tested on: LOX IMVI melanoma
[8] = tested on: CAKI-1 renal
[9] = tested on: TK-10 renal
[10] = tested on: MDA-MB-435
[11] = tested on: KM12 colon
[12] = tested on: COLO 205 colon
[13] = tested on: OVCAR-8 ovarian
[14] = tested on: M14 melanoma
[15] = tested on: HCC-2998 colon
[16] = tested on: NCI/ADR-RES ovarian
[17] = tested on: HS 578T breast
[18] = tested on: SF-268 CNS
[19] = tested on: PC-3 prostate
[20] = tested on: NCI-H460 lung
[21] = tested on: 786-0 renal
[22] = tested on: HCT-15 colon
[23] = tested on: MOLT-4 leukemia
[24] = tested on: HOP-62 NSCLC
[25] = tested on: A498 renal
[26] = tested on: EKVX NSCLC
[27] = tested on: SN12C renal
[28] = tested on: HOP-92 NSCLC
[29] = tested on: ACHN renal
[30] = tested on: UO-31 renal
[31] = tested on: NCI-H226 lung
[32] = tested on: RPMI-8226 leukemia
[33] = tested on: RXF 393 renal
[34] = tested on: IGROV1 ovarian
[35] = tested on: MDA-MB-231 breast
[36] = tested on: UACC-257 melanoma
[37] = tested on: T-47D breast
[38] = tested on: CCRF-CEM leukemia
[39] = tested on: HL-60(TB) leukemia
[40] = tested on: UACC-62 melanoma
[41] = tested on: SK-MEL-5 melanoma
[42] = tested on: SK-MEL-2 melanoma
[43] = tested on: MALME-3M melanoma
[44] = tested on: HCT-116 colon
[45] = tested on: NCI-H522 lung
[46] = tested on: SNB-19 CNS
[47] = tested on: SF-539 CNS
[48] = tested on: HT29 colon
[49] = tested on: OVCAR-3 ovarian
[50] = tested on: U251 CNS
[51] = tested on: SF-295 CNS
[52] = tested on: BT-549 breast
[53] = tested on: SW-620 colon
[54] = tested on: A549 NSCLC
[55] = tested on: OVCAR-5 ovarian
[56] = tested on: SK-MEL-28 melanoma
[57] = tested on: OVCAR-4 ovarian
[58] = tested on: SNB-75 CNS
[59] = tested on: MDA-N

With `CS(=O)(=O)Nc1cccc(-c2ccc3c(NC(=O)C4CC4)n[nH]c3c2)c1` the GI50 [1] was 3.92 µM, the TGI [1] was 15.7 µM and the GI50 [2] was 0.776 µM. The TGI [2] was > 25 µM, the GI50 [3] was 6.82 µM and the TGI [3] was > 25 µM. For the same molecule, the GI50 [4] was 0.794 µM, the TGI [4] was > 9.93 µM and the GI50 [5] was 10.2 µM. The TGI [5] was > 25 µM, the GI50 [6] was 0.355 µM and the TGI [6] was > 25 µM. For the same molecule, the GI50 [7] was 1.82 µM, the TGI [7] was > 25 µM and the GI50 [8] was > 20.6 µM. The TGI [8] was > 25 µM, the GI50 [9] was 24.6 µM and the TGI [9] was > 25 µM. For the same molecule, the GI50 [10] was 0.165 µM, the TGI [10] was 0.944 µM and the GI50 [11] was 1.39 µM. For the same molecule, the TGI [11] was > 25 µM, the GI50 [12] was 1.81 µM and the TGI [12] was > 12.9 µM. The GI50 [13] was 6.26 µM, the TGI [13] was > 25 µM and the GI50 [14] was 2.33 µM. For the same molecule, the TGI [14] was > 25 µM, the GI50 [15] was 4.08 µM and the TGI [15] was > 25 µM. The GI50 [16] was 6.45 µM, the TGI [16] was > 25 µM and the GI50 [17] was 2.22 µM. For the same molecule, the TGI [17] was > 25 µM, the GI50 [18] was 2.78 µM and the TGI [18] was > 25 µM. For the same molecule, the GI50 [19] was 3.24 µM, the TGI [19] was > 25 µM and the GI50 [20] was 7.76 µM. For the same molecule, the TGI [20] was > 25 µM, the GI50 [21] was 12.2 µM and the TGI [21] was > 25 µM. For the same molecule, the GI50 [22] was 7.29 µM, the TGI [22] was > 25 µM and the GI50 [23] was 6.27 µM. For the same molecule, the TGI [23] was > 25 µM, the GI50 [24] was 1.16 µM and the TGI [24] was > 21.5 µM. The GI50 [25] was 4.32 µM, the TGI [25] was > 25 µM and the GI50 [26] was > 24.1 µM. The TGI [26] was > 25 µM, the GI50 [27] was 5.25 µM and the TGI [27] was > 25 µM. The TGI [28] was > 25 µM, the GI50 [29] was 12.7 µM and the TGI [29] was > 25 µM. The GI50 [30] was 24.8 µM, the TGI [30] was > 25 µM and the GI50 [31] was 2.59 µM. The TGI [31] was > 25 µM, the GI50 [32] was 10.8 µM and the TGI [32] was > 25 µM. The GI50 [33] was 1.28 µM, the TGI [33] was > 25 µM and the GI50 [34] was 16.3 µM. The TGI [34] was > 25 µM, the GI50 [35] was 6.35 µM and the TGI [35] was > 25 µM. The GI50 [36] was > 25 µM, the TGI [36] was > 25 µM and the GI50 [37] was 1.2 µM. For the same molecule, the TGI [37] was > 25 µM, the GI50 [38] was 1.33 µM and the TGI [38] was > 25 µM. It also gave a GI50 [39] of 1.73 µM, a TGI [39] of 10.8 µM and a GI50 [40] of 1.03 µM. For the same molecule, the TGI [40] was > 25 µM, the GI50 [41] was 0.641 µM and the TGI [41] was > 13 µM. For the same molecule, the GI50 [42] was 1.37 µM, the TGI [42] was > 25 µM and the GI50 [43] was > 4.93 µM. For the same molecule, the TGI [43] was > 25 µM, the GI50 [44] was 1.51 µM and the TGI [44] was > 25 µM. The GI50 [45] was 0.308 µM, the GI50 [46] was 3.64 µM and the TGI [46] was > 25 µM. The GI50 [47] was 1.5 µM, the TGI [47] was > 25 µM and the GI50 [48] was 3.88 µM. The TGI [48] was > 25 µM, the GI50 [49] was 0.641 µM and the TGI [49] was 1.96 µM. For the same molecule, the GI50 [50] was 1.49 µM, the TGI [50] was > 25 µM and the GI50 [51] was 5.65 µM. For the same molecule, the TGI [51] was > 25 µM, the GI50 [52] was 5.86 µM and the TGI [52] was > 25 µM. For the same molecule, the GI50 [53] was 2.14 µM, the TGI [53] was > 25 µM and the GI50 [54] was 10.9 µM. For the same molecule, the TGI [54] was > 25 µM, the GI50 [55] was 12.7 µM and the TGI [55] was > 25 µM. For the same molecule, the GI50 [56] was 3.4 µM, the TGI [56] was > 25 µM and the GI50 [57] was 2.68 µM. For the same molecule, the TGI [57] was > 25 µM, the GI50 [58] was 4.6 µM and the TGI [58] was > 25 µM.
With `O=c1oc2cc(O)ccc2cc1-c1nc2ccccc2s1` the TGI [1] was 78.1 µM, the TGI [2] was > 100 µM and the TGI [3] was > 100 µM. For the same molecule, the TGI [4] was 67 µM, the TGI [5] was 61.2 µM and the TGI [6] was > 100 µM. For the same molecule, the TGI [7] was 90.2 µM, the TGI [8] was 74.6 µM and the TGI [9] was > 100 µM. For the same molecule, the TGI [10] was 90.1 µM, the TGI [11] was > 100 µM and the TGI [12] was 11 µM. For the same molecule, the TGI [13] was > 100 µM, the TGI [14] was 82.9 µM and the TGI [15] was 66.1 µM. For the same molecule, the TGI [16] was 44.7 µM, the TGI [19] was 52.5 µM and the TGI [20] was 62.2 µM. The TGI [59] was 49.9 µM, the TGI [21] was 52.7 µM and the TGI [22] was > 100 µM. The TGI [23] was 17.4 µM, the TGI [24] was 41.6 µM and the TGI [25] was 51.1 µM. For the same molecule, the TGI [26] was 85.9 µM, the TGI [27] was 49 µM and the TGI [28] was > 100 µM. The TGI [29] was 52.4 µM, the TGI [30] was 47.6 µM and the TGI [32] was > 100 µM. The TGI [33] was 79.9 µM, the TGI [34] was > 100 µM and the TGI [35] was 53.6 µM. For the same molecule, the TGI [36] was 58.2 µM, the TGI [37] was 95.7 µM and the TGI [38] was 26.8 µM. It also gave a TGI [39] of 55.6 µM, a TGI [40] of 41.7 µM and a TGI [41] of 28.5 µM. The TGI [42] was 50.6 µM, the TGI [44] was 47 µM and the TGI [46] was > 100 µM. For the same molecule, the TGI [47] was 46.6 µM, the TGI [48] was 85.6 µM and the TGI [49] was 45.6 µM. It also gave a TGI [50] of 55.7 µM, a TGI [51] of 89.3 µM and a TGI [52] of 51 µM. For the same molecule, the TGI [53] was 44 µM, the TGI [54] was 55.1 µM and the TGI [55] was > 100 µM. The TGI [56] was > 100 µM and the TGI [57] was > 100 µM.
For `COc1cc(CNC(=O)[C@H](Cc2ccc(O)cn2)NC(C)=O)cc(OC)c1`, the TGI [1] was > 100 µM, the TGI [2] was > 100 µM and the TGI [3] was > 100 µM. For the same molecule, the TGI [4] was > 100 µM, the TGI [5] was > 100 µM and the TGI [7] was > 100 µM. The TGI [8] was > 100 µM, the TGI [9] was > 100 µM and the TGI [10] was > 100 µM. For the same molecule, the TGI [11] was > 100 µM, the TGI [12] was > 100 µM and the TGI [14] was > 100 µM. For the same molecule, the TGI [15] was > 100 µM, the TGI [16] was > 100 µM and the TGI [17] was > 100 µM. The TGI [18] was > 100 µM, the TGI [19] was > 100 µM and the TGI [20] was > 100 µM. For the same molecule, the TGI [59] was > 100 µM, the TGI [21] was > 100 µM and the TGI [22] was > 100 µM. The TGI [23] was > 100 µM, the TGI [24] was > 100 µM and the TGI [25] was > 100 µM. The TGI [26] was > 100 µM, the TGI [27] was > 100 µM and the TGI [28] was 75.5 µM. The TGI [29] was > 100 µM, the TGI [30] was > 100 µM and the TGI [31] was > 100 µM. The TGI [32] was > 100 µM, the TGI [33] was > 100 µM and the TGI [34] was > 100 µM. The TGI [36] was > 100 µM, the TGI [37] was > 100 µM and the TGI [38] was > 100 µM. The TGI [39] was > 100 µM, the TGI [40] was > 100 µM and the TGI [41] was > 100 µM. For the same molecule, the TGI [42] was > 100 µM, the TGI [43] was > 100 µM and the TGI [44] was > 100 µM. The TGI [45] was > 100 µM, the TGI [46] was > 100 µM and the TGI [47] was > 100 µM. For the same molecule, the TGI [48] was > 100 µM, the TGI [49] was > 100 µM and the TGI [50] was > 100 µM. The TGI [51] was > 100 µM, the TGI [52] was > 100 µM and the TGI [53] was > 100 µM. The TGI [54] was > 100 µM, the TGI [55] was > 100 µM and the TGI [56] was > 100 µM. The TGI [57] was > 100 µM.
